Measured values taken from ChEMBL document CHEMBL3259629, “Discovery and optimization of piperidyl-1,2,3-triazole ureas as potent, selective, and in vivo-active inhibitors of α/β-hydrolase domain containing 6 (ABHD6)” (J Med Chem, 2013).

Tests used:
Conditions in all cases: Neuro2a, 3 nM
[1] = target: T1, Acylamino-acid-releasing enzyme (Mus musculus) (UniProt Q8R146)
T1 sequence (whole entry): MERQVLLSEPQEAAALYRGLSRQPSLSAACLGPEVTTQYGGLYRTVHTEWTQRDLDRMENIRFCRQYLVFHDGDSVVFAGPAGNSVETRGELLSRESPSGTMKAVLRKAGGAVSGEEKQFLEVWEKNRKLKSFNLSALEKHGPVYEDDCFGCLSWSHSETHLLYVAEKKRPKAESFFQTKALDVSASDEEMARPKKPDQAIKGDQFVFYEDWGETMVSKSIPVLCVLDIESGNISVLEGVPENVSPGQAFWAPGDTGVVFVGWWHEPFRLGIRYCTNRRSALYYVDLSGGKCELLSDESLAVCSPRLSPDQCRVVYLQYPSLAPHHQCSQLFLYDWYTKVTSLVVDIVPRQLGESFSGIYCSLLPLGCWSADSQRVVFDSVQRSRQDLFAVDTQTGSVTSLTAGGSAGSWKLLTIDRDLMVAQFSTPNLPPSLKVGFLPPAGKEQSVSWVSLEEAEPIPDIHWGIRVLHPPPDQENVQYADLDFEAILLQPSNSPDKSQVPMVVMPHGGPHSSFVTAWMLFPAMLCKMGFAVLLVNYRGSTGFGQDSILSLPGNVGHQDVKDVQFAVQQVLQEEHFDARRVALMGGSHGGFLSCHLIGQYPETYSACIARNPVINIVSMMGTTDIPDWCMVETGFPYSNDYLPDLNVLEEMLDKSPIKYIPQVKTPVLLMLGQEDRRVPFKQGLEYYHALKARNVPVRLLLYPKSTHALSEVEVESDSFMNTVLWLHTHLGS
Description: Inhibition of Apeh in mouse Neuro2a cells at 3 nM after 4 hrs by ABPP-SILAC assay

[2] = target: T2, Serine protease HTRA2, mitochondrial (Mus musculus) (UniProt Q9JIY5)
T2 sequence (whole entry): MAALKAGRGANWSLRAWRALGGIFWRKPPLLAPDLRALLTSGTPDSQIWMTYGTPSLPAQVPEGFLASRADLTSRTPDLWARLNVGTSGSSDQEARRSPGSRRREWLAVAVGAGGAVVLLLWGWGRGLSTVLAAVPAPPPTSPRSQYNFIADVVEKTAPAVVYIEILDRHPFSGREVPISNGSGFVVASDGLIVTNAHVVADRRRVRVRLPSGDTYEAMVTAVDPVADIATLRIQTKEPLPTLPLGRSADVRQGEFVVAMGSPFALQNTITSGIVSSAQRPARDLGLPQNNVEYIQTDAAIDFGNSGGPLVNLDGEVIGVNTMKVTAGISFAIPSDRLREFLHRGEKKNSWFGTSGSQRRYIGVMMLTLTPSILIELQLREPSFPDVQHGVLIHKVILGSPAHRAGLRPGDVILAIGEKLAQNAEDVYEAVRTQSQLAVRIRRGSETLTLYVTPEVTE
Description: Inhibition of Htra2 in mouse Neuro2a cells at 3 nM after 4 hrs by ABPP-SILAC assay

[3] = target: T3, Hormone-sensitive lipase (Mus musculus) (UniProt P54310)
T3 sequence (whole entry): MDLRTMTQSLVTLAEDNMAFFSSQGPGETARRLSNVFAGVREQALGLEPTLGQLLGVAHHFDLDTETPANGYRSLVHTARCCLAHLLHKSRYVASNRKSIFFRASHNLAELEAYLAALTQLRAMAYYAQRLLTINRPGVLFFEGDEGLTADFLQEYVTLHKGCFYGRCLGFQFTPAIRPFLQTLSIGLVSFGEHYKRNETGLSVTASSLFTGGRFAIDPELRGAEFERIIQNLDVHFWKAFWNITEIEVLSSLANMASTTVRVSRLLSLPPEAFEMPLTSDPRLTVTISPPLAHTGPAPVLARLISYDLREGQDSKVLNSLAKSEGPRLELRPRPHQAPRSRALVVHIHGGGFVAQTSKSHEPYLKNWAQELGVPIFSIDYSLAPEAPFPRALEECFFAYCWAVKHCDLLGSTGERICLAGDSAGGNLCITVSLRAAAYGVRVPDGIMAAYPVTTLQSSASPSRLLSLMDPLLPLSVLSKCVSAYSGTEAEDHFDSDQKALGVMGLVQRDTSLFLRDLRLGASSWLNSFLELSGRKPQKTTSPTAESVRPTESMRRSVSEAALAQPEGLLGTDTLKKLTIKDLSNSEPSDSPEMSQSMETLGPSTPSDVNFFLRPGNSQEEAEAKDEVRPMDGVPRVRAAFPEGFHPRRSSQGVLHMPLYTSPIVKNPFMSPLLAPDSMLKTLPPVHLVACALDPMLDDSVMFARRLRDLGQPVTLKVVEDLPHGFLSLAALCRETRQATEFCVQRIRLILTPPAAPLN
Description: Inhibition of Lipe in mouse Neuro2a cells at 3 nM after 4 hrs by ABPP-SILAC assay

[4] = target: T4, Calcium-independent phospholipase A2-gamma (Mus musculus) (UniProt Q8K1N1)
T4 sequence (whole entry): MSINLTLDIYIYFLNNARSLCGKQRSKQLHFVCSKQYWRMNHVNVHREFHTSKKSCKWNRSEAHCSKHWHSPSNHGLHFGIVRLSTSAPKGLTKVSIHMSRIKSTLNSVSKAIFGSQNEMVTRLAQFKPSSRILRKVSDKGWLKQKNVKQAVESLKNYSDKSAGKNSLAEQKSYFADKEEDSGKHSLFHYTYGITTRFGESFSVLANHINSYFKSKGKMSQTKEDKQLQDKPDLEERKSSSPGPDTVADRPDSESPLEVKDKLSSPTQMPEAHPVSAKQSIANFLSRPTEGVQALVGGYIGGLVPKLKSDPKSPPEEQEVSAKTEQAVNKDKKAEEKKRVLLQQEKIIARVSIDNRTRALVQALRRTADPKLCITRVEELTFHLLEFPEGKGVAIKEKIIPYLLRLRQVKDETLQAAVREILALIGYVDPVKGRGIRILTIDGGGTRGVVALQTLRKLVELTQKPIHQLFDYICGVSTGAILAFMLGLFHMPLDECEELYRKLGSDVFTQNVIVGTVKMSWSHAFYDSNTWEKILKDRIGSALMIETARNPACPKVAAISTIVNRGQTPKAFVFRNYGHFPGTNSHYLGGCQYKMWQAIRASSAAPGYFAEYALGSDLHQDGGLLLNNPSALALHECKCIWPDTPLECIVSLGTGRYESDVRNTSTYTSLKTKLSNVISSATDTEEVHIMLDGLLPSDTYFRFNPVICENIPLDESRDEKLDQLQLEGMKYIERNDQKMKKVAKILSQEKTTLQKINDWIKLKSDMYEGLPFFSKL
Description: Inhibition of Pnpla8 in mouse Neuro2a cells at 3 nM after 4 hrs by ABPP-SILAC assay

Measured: inhibition

O=C(N1CCCCC1c1ccccc1)n1cc(-c2ccc(-c3cccc(CO)c3)cc2)nn1 (racemic)
< 50%: all assays above

O=C(c1cccc(-c2ccc(-c3cn(C(=O)N4CCCCC4c4ccccc4)nn3)cc2)c1)N1CCCCC1 (racemic)
< 50%: all assays above

O=C(O)c1cccc(-c2ccc(-c3cn(C(=O)N4CCCCC4Cc4ccccc4)nn3)cc2)c1 (racemic)
< 50%: all assays above
